Assays:
[1] = biological target: T1, SARS-CoV-2 PLpro (Severe acute respiratory syndrome coronavirus 2, UniProt P0DTD1); assay: IC50 inhibitory assay, fluorogenic substrate cleavage by PLpro; assay type: biochemical; details: for IC50: SARS-CoV-2 PLpro 0.1 μM, substrate 10 μM, pH 8.1, 37 °C, 10 min preincubation; for inhibitory potency of PROTAC and parent ligand in binary IC50 experiment (in words): in vitro inhibitory assay, 20 mM HEPES, pH 8.1, 1% DMSO, PROTAC compared with parent ligand
T1 construct: The papain-like protease domain (PLpro) of SARS-CoV-2 (SCoV2)
Method: The inhibitory activities of compounds against SARS-CoV-2 PLpro were determined in a reaction buffer containing 20 mM HEPES, 40 mM NaCl, 5% glycerol, 2 mM DTT (freshly added before the measurements), pH 8.1, at 37 °C. A fluorescent substrate of SARS-CoV-2 PLpro (Z-Arg-leu-Arg-Gly-Gly-[…]AMC; Biosyntan, Berlin) was used, and the fluorescence signal of the cleaved substrate was monitored using a Tecan Spark® fluorescence spectrophotometer at an […] wavelength of 460/360 nm. SARS-CoV-2 PLpro (10 μL per well) was pipetted into a 96-well plate together with reaction buffer reaction buffer (50 μL per well, final enzyme concentration: 0.1 μM). Compounds (10 μL per well) were added at varying concentrations, and plates incubated at 37 °C for 10 mins. Finally, the reaction was initiated by adding 30 μL of the substrate (final concentration: 10 μM) dissolved in the reaction buffer.
FIG. 1: PROTAC and parent ligand for SARS-CoV-2 PLpro in a binary IC50 experiment. C10778A PROTAC (top left), comprising a SARS-CoV-2 PLpro targeting ligand C10778B (bottom left) connected to thalidomide via a C3 alkyl linker. IC50 values have been determined in an in vitro inhibitory binding assay whereby the fluorescence signal resulting from cleavage of a fluorogenic substrate by PLpro is measured. Inhibition of PLpro is associated with reduced cleavage of the fluorogenic substrate. […] Assay conditions: experiments were performed in 20 mM HEPES buffer containing 40 mM NaCl 5% glycerol, 2 mM DTT at pH 8.1. A fluorogenic substrate for PLpro (Z-Arg-leu-Arg-Gly-Gly-AMC) was used to determine the inhibition rate of compounds. Final DMSO concentration in each reaction was 1%. Measurements were performed in triplicate.

[2] = test system: SARS-CoV-2; assay: Antiviral assay in infected Vero E6 cells (ATP quantification, Cell Titer Glo); details: Vero E6 cells, MOI 0.05, 72 h; for inhibition at 10 µM / inhibition at 50 µM: Severe acute respiratory syndrome coronavirus 2, Vero C1008, 72 h; for inhibition at 10 µM: read-out: Antiviral Activity, 10 uM (cell viability assay), 10 uM; for inhibition at 50 µM: read-out: Antiviral Activity, 50 uM (cell viability assay), 50 uM
Method: Vero E6 cells (2×10^4/well) were seeded in 96 well plates one day before the experiment. Pre-treatment, the medium was removed and compounds were added at concentrations varying from 0.1-100 μM. After 24 h incubation, the medium was removed and cells were infected with MOI 0.05 SARS-CoV-2 SARS-CoV2/ZG/297-20. After 1 h infection, the viruses were removed and the same concentration of compounds were added back into the cells. After 72 h incubation at 37 °C, EC50 measurements were made using ATP quantification (Cell Titer Glo).

Work on `Cc1ccc(NC(=O)CCCCC(=O)N[C@H](C(=O)N2C[C@H](O)C[C@H]2C(=O)NCc2ccc(-c3scnc3C)cc2)C(C)(C)C)cc1C(=O)N[C@H](C)c1cccc2ccccc12` [TS309] yielded an IC50 [1] of 10 to 25 µM, an inhibition at 10 µM [2] of under 0% and an inhibition at 50 µM [2] of under 0%.

`Cc1ccc(NC(=O)CCOCCOCCOCCOCCNc2cccc3c2C(=O)N(C2CCC(=O)NC2=O)C3=O)cc1C(=O)N[C@H](C)c1cccc2ccccc12` (stereo partly drawn) [TS129] gave an IC50 [1] of 10 to 25 µM, an inhibition at 10 µM [2] of under 0% and an inhibition at 50 µM [2] of under 0%.

Work on `Cc1ccc(NC(=O)CCNc2cccc3c2C(=O)N(C2CCC(=O)NC2=O)C3=O)cc1C(=O)N[C@H](C)c1cccc2ccccc12` (stereo in doubt) [TS140] yielded an IC50 [1] of over 25 µM, an inhibition at 10 µM [2] of under 0% and an inhibition at 50 µM [2] of under 0%.

`C[C@H](c1cccc2ccccc12)N1CCC(C(=O)NCc2cc(F)cc(NC(=O)N3CCN(CC4CCN(c5ccc6c(c5)C(=O)N(C5CCC(=O)NC5=O)C6=O)CC4)CC3)c2)CC1` (stereo partly drawn) [TS535] was tested, and the IC50 [1] was 10 to 25 µM, the inhibition at 10 µM [2] was under 25% and the inhibition at 50 µM [2] was under 75%.

`Cc1ncsc1-c1ccc(CNC(=O)[C@@H]2C[C@@H](O)CN2C(=O)[C@@H](NC(=O)CCCCN2CCN(C(=O)Nc3cc(F)cc(CNC(=O)C4CCN([C@H](C)c5cccc6ccccc56)CC4)c3)CC2)C(C)(C)C)cc1` [TS558] showed an IC50 [1] of under 10 µM, an inhibition at 10 µM [2] of under 0% and an inhibition at 50 µM [2] of under 0%.

For `C[C@H](c1cccc2ccccc12)N1CCC(C(=O)NCc2cc(F)cc(NC(=O)N3CCN(CCOCCOCCOc4cccc5c4C(=O)N(C4CCC(=O)NC4=O)C5=O)CC3)c2)CC1` (stereo partly drawn) [TS420], the IC50 [1] was under 10 µM, the inhibition at 10 µM [2] was under 25% and the inhibition at 50 µM [2] was under 0%.

In the case of `C[C@H](c1cccc2ccccc12)N1CCC(C(=O)NCc2cc(F)cc(NC(=O)N3CCN(CCOCCOCCOCCOc4cccc5c4C(=O)N(C4CCC(=O)NC4=O)C5=O)CC3)c2)CC1` (stereo partly drawn) [TS423], the IC50 [1] is reported as under 10 µM, the inhibition at 10 µM [2] is reported as under 25% and the inhibition at 50 µM [2] is reported as under 0%.

With `C[C@H](c1cccc2ccccc12)N1CCC(C(=O)NCc2cc(F)cc(NC(=O)N3CCN(CCCCOc4ccc5c(c4)C(=O)N(C4CCC(=O)NC4=O)C5=O)CC3)c2)CC1` (stereo partly drawn) [TS530] the IC50 [1] was under 10 µM, the inhibition at 10 µM [2] was under 25% and the inhibition at 50 µM [2] was under 75%.

`Cc1ccc(NC2CCNCC2)cc1C(=O)N[C@H](C)c1cccc(-c2ccc(CNC(=O)CCCCCNc3ccc4c(c3)C(=O)N(C3CCC(=O)NC3=O)C4=O)s2)c1` (stereo partly drawn) [Compound C10778D] was tested, and the IC50 [1] was under 1 µM, the inhibition at 10 µM [2] was under 0% and the inhibition at 50 µM [2] was under 0%.

In the case of `Cc1ccc(NC(=O)CCCCOc2cc(-c3scnc3C)ccc2CNC(=O)[C@@H]2C[C@@H](O)CN2C(=O)[C@@H](NC(=O)C2(F)CC2)C(C)(C)C)cc1C(=O)N[C@H](C)c1cccc2ccccc12` [TS290], the IC50 [1] is reported as over 25 µM, the inhibition at 10 µM [2] is reported as under 0% and the inhibition at 50 µM [2] is reported as under 25%.

Work on `C[C@H](c1cccc2ccccc12)N1CCC(C(=O)NCc2cc(F)cc(NC(=O)N3CCN(CCOc4ccc5c(c4)C(=O)N(C4CCC(=O)NC4=O)C5=O)CC3)c2)CC1` (stereo partly drawn) [TS499] yielded an IC50 [1] of under 1 µM, an inhibition at 10 µM [2] of under 25% and an inhibition at 50 µM [2] of under 25%.

In the case of `Cc1ccc(NC2CCNCC2)cc1C(=O)N[C@H](C)c1cccc(-c2ccc(CNC(=O)CCCOc3cccc4c3C(=O)N(C3CCC(=O)NC3=O)C4=O)s2)c1` (stereo partly drawn) [Compound C10778A, N-((1R)-1-(3-(5-((4-((2-(2,6-Dioxopiperidin-3-yl)-1,3-dioxoisoindolin-4-yl)oxy)butanamido)methyl)thiophen-2-yl)phenyl)ethyl)-2-methyl-5-(piperidin-4-ylamino)benzamide], the IC50 [1] is reported as under 1 µM and the “inhibitory potency of PROTAC and parent ligand in binary IC50 experiment (in words)” value [1] is reported as “retains nM activity for PLpro, similar to the parent compound”.

Molecule `C[C@H](c1cccc2ccccc12)N1CCC(C(=O)NCc2cc(F)cc(NC(=O)N3CCN(CCNC(=O)COc4ccc(C5CCC(=O)NC5=O)cc4)CC3)c2)CC1` (stereo partly drawn) [TS519] has an IC50 [1] of under 10 µM, an inhibition at 10 µM [2] of under 25% and an inhibition at 50 µM [2] of under 25%.

`Cc1ccc(NC(=O)CCOCCOCCOCCNc2ccc3c4c(cccc24)C(=O)N(C2CCC(=O)NC2=O)C3=O)cc1C(=O)N[C@H](C)c1cccc2ccccc12` (stereo partly drawn) [TS182] showed an IC50 [1] of under 10 µM, an inhibition at 10 µM [2] of under 0% and an inhibition at 50 µM [2] of under 25%.

Molecule `C[C@H](c1cccc2ccccc12)N1CCC(C(=O)NCc2cc(F)cc(NC(=O)N3CCN(CCCCC(=O)N4CCN(c5ccc(N6CCC(=O)NC6=O)cc5)CC4)CC3)c2)CC1` [TS553] has an IC50 [1] of under 10 µM, an inhibition at 10 µM [2] of under 25% and an inhibition at 50 µM [2] of under 25%.

`C[C@H](c1cccc2ccccc12)N1CCC(C(=O)NCc2cc(F)cc(NC(=O)N3CCN(CCCCOc4cccc5c4C(=O)N(C4CCC(=O)NC4=O)C5=O)CC3)c2)CC1` (stereo partly drawn) [TS452] showed an IC50 [1] of under 10 µM, an inhibition at 10 µM [2] of under 0% and an inhibition at 50 µM [2] of under 0%.

`C[C@H](c1cccc2ccccc12)N1CCC(C(=O)NCc2cc(F)cc(NC(=O)N3CCN(CCCCNC(=O)COc4ccc(C5CCC(=O)NC5=O)cc4)CC3)c2)CC1` (stereo partly drawn) [TS526] gave an IC50 [1] of under 10 µM, an inhibition at 10 µM [2] of under 0% and an inhibition at 50 µM [2] of under 25%.

Work on `Cc1ccc(NC(=O)CCCCOc2cc3c4c(cccc4c2)C(=O)N(C2CCC(=O)NC2=O)C3=O)cc1C(=O)N[C@H](C)c1cccc2ccccc12` (stereo partly drawn) [TS251] yielded an IC50 [1] of 10 to 25 µM, an inhibition at 10 µM [2] of under 0% and an inhibition at 50 µM [2] of under 25%.

For `Cc1ccc(NC(=O)CCOCCNc2ccc3c4c(cccc24)C(=O)N(C2CCC(=O)NC2=O)C3=O)cc1C(=O)N[C@H](C)c1cccc2ccccc12` (stereo in doubt) [TS181], the “Antiviral Activity, 10 uM (cell viability assay)” value ([2]; 10 uM, 4320 min) was “E (<0% = E)” and the inhibition at 50 µM [2] was under 0%.

In the case of `Cc1ccc(NC2CCNCC2)cc1C(=O)N[C@H](C)c1cccc(-c2ccc(CNC(=O)CCCNc3cccc4c3C(=O)N(C3CCC(=O)NC3=O)C4=O)s2)c1` (stereo partly drawn) [Compound C10778I], the IC50 [1] is reported as under 1 µM, the inhibition at 10 µM [2] is reported as under 0% and the inhibition at 50 µM [2] is reported as under 0%.

Molecule `C[C@H](c1cccc2ccccc12)N1CCC(C(=O)NCc2cc(F)cc(NC(=O)N3CCN(CCCCNC(=O)COc4ccc(N5CCC(=O)NC5=O)cc4)CC3)c2)CC1` [TS557] has an IC50 [1] of under 10 µM, an inhibition at 10 µM [2] of under 0% and an inhibition at 50 µM [2] of under 0%.

In the case of `Cc1ccc(NC(=O)CCOCCOCCNc2ccc3c4c(cccc24)C(=O)N(C2CCC(=O)NC2=O)C3=O)cc1C(=O)N[C@H](C)c1cccc2ccccc12` (stereo partly drawn) [TS170], the IC50 [1] is reported as under 10 µM, the inhibition at 10 µM [2] is reported as under 0% and the inhibition at 50 µM [2] is reported as under 25%.

`Cc1ccc(NC(=O)CCCCCCC(=O)N[C@H](C(=O)N2C[C@H](O)C[C@H]2C(=O)NCc2ccc(-c3scnc3C)cc2)C(C)(C)C)cc1C(=O)N[C@H](C)c1cccc2ccccc12` [TS310] was tested, and the IC50 [1] was over 25 µM, the inhibition at 10 µM [2] was under 0% and the inhibition at 50 µM [2] was under 0%.

`Cc1ccc(NC2CCNCC2)cc1C(=O)N[C@H](C)c1cccc(-c2ccc(CNC(=O)CCCCNC(=O)COc3ccc(C4CCC(=O)NC4=O)cc3)s2)c1` (stereo partly drawn) [Compound C10778F] gave an IC50 [1] of under 10 µM, an inhibition at 10 µM [2] of under 25% and an inhibition at 50 µM [2] of under 25%.

For `C[C@H](c1cccc2ccccc12)N1CCC(C(=O)NCc2cc(F)cc(NC(=O)N3CCN(CCCCCCNC(=O)COc4ccc(C5CCC(=O)NC5=O)cc4)CC3)c2)CC1` (stereo partly drawn) [TS529], the IC50 [1] was under 10 µM, the inhibition at 10 µM [2] was under 75% and the inhibition at 50 µM [2] was under 75%.

Work on `C[C@H](c1cccc2ccccc12)N1CCC(C(=O)NCc2cc(F)cc(NC(=O)N3CCN(CCCCCCOc4ccc5c(c4)C(=O)N(C4CCC(=O)NC4=O)C5=O)CC3)c2)CC1` (stereo partly drawn) [TS534] yielded an IC50 [1] of under 10 µM, an inhibition at 10 µM [2] of under 25% and an inhibition at 50 µM [2] of over 75%.

`Cc1ccc(NC(=O)CCOCCOCCNc2cccc3c2C(=O)N(C2CCC(=O)NC2=O)C3=O)cc1C(=O)N[C@H](C)c1cccc2ccccc12` (stereo partly drawn) [TS139] gave an IC50 [1] of under 10 µM, an inhibition at 10 µM [2] of under 0% and an inhibition at 50 µM [2] of under 25%.

`Cc1ccc(C(=O)NCCCCN2CCN(C(=O)Nc3cc(F)cc(CNC(=O)C4CCN([C@H](C)c5cccc6ccccc56)CC4)c3)CC2)cc1N1CCC(=O)NC1=O` [TS567] showed an IC50 [1] of under 10 µM, an inhibition at 10 µM [2] of under 0% and an inhibition at 50 µM [2] of under 0%.

For `CC(=O)NCc1ccc(-c2cccc([C@@H](C)NC(=O)c3cc(NC4CCNCC4)ccc3C)c2)s1` [Compound C10778B, (R)—N-(1-(3-(5-(Acetamidomethyl)thiophen-2-yl)phenyl)ethyl)-2-methyl-5-(piperidin-4-ylamino)benzamide, reference compound], the “inhibitory potency of PROTAC and parent ligand in binary IC50 experiment (in words)” value [1] was “nM activity for PLpro”.

`Cc1ccc(NC(=O)CCCNc2cccc3c2C(=O)N(C2CCC(=O)NC2=O)C3=O)cc1C(=O)N[C@H](C)c1cccc2ccccc12` (stereo partly drawn) [TS145] was tested, and the IC50 [1] was under 10 µM.

Reference: patent US20260364182A1, “PROTEOLYSIS-TARGETING CHIMERAS AGAINST THE PAPAIN-LIKE PROTEASE OF SARS-COV-2” (Tocris Cookson Limited, priority 2022, published 2026)
